Assay results taken from patent US6479466B1, “Compositions for treating viral infections, and methods therefor” (University of Maryland, priority 1999, dated 2002).
Read-outs that look alike come from different tables or passages of the source.

Legend:
HTLV-IIIB = assay: p24 antigen production in PHA-activated PBMCs infected with HTLV-IIIB; type: cell-based, HIV-1; conditions: for inhibition at 10 µM / IC90: Human immunodeficiency virus 1, IIIB, PBMC; for IC90: read-out: IC90 (concentration of nucleoside analog that reduced the p24 antigen value of the untreated control by 90%)
Excerpt: The antiviral activities of RV alone and in combination with nucleoside analogs were investigated in PHA-stimulated PBMCs from seronegative donors. RV, ddC, ddI, and AZT were purchased from Sigma (St. Louis, Mo.). The HIV-1 T-cell line adapted isolate HTLV-IIIB was obtained from Dr. Gallo, at the National Institutes of Health AIDS Research and Reference Reagent Program (Catalog #398, Rockville, Md.). Primary strains of HIV-1 were isolated by coculturing 10^7 patient PBMC with an equal number of PHA-stimulated PBMC from a normal donor. Titration of stocks and MT-2 phenotype determination were carried out as described (ACTG Virology Manual, NIH Pub No. 94 3828, 1994). The SI phenotype was determined by assessing viral growth and syncytia formation in the MT-2 cell line obtained from Dr. Richman at the National Institutes of Health AIDS Research and Reference Reagent Program (Catalog #237, Rockville, Md.).
Primary PBMCs were separated from whole blood of HIV seronegative donors by density centrifugation over Ficoll-Hypaque (Sigma). The culture medium consisted of RPMI supplemented with 10% fetal bovine serum (FBS), 2 mM glutamine and penicillin/streptomycin (Gibco, Grand Island, N.Y.).
For infection studies involving PBMCs, cells were stimulated with 2.5 or 10 μg/ml phytohemagglutinin (PHA; Boehringer Mannheim, Indianapolis, Ind.) for 3 days. Stimulated PBMCs were infected by incubation with virus at a multiplicity of infection of 1000 TCID50/10^6 PBMC for 2 hours. PBMCs were then washed three times with PBS and cultured in 5% CO2 at 37° C., in RPMI/10% FBS supplemented with 10 units/ml IL-2 (Boehringer Mannheim) and drugs as appropriate. PBMCs were seeded in 96-well flat-bottom plates at a density of 2×10^5 PBMCs/200 μl. Following 3 days of culture half of the medium was replaced with fresh medium containing IL-2 and drugs. After 7 days of culture, HIV-1 p24 antigen production in the culture supernatant was assayed by ELISA (Coulter, Hialeah, Fla.). The concentration of nucleoside analog, alone and in combination with resveratrol, that reduced the p24 antigen value of the untreated control by 90% (IC90) was calculated by using nonparametric regression analysis. The analysis used the median-effect equation, Fa=1/[1+(Dm/D)]^m, where D is the dose, Fa is the fraction affected, and Dm is the dose required to produce the median effect.
Cells were infected with the T-cell tropic isolate HTLV-IIIB for 2 hours, and then cultured in varying concentrations of RV with or without nucleoside analogs. Virus replication was measured by p24 antigen production by ELISA using a standard commercial kit in the culture supernatants on days 7 and 10 after infection.
Activated PBMCs infected with HTLV-IIIB were cultured in the presence of ddI plus HU (100 μM) or RV (5 and 10 μM). […] Virus production in the presence of the different drug concentrations was evaluated on day 7 after infection.

HIV-1SF162 = assay: p24 antigen production in monocyte-derived macrophages infected with HIV-1SF162; type: cell-based; conditions: for virus production after drug removal on day 20: 10 μM ddI with or without 10 μM RV, 14 further days
Protocol: MDMs were prepared as described infra, and infected with the SF162 strain of HIV-1 obtained from Dr. Levy at the National Institutes of Health AIDS Research and Reference Reagent Program (Rockville, Md.). Briefly, 25×10^6 freshly isolated PBMCs were cultured for 5 days in T-25 flasks (Coming Costar, Cambridge, Mass.) containing culture medium supplemented with 20% FBS and 10% AB human serum (Gemini Bioproducts, Inc., Calabasas, Calif.). On day 5, non-adherent cells were removed by washing five times with warm RPMI/10%FBS medium. Adherent cells in representative flasks were counted by trypan blue exclusion. By morphology and cytochemical staining for nonspecific esterase (Sigma), more than 97% of cells were macrophages. HIV infection was carried out by adding virus to the flask at a multiplicity of infection of 2000 TCID50/10^6 adherent cells and incubating for 3 hours. Flasks were then washed 3 times with warm RPMI/10%FBS medium and cultured in RPMI containing 20% FBS plus drugs. Every 3 days culture supernatants were collected and fresh medium containing drugs was added to each flask. Virus replication was assayed weekly for p^24 antigen production as described in Example 1 in the supernatant. Cultures were maintained for 3 weeks.
For the present example, cultures were maintained in the presence of 10 μM RV and varying concentrations of ddI. The amount of p24 antigen produced in the supernatant was measured on days 7 and 16 after infection. […] However, a 10-fold or greater potentiation of ddI-antiviral activity was observed when the nucleoside analogue was combined with 10 μM RV.
MDMs derived from 2 seronegative donors were infected with the SF 162 strain of HIV-1 and cultured in the presence of 10 μM ddI, a plasma level attainable in treated individuals. The anti-HIV effect of this concentration of ddI was investigated in the presence or absence of 10 μM RV. DdI alone (10 μM) inhibited viral replication by more than 90% in both donors on day 7 after infection. […] The strong antiviral activity achieved by RV plus ddI on day 16 was further analyzed by removing the drugs from the culture. The drugs were then removed on day 20 and the macrophages maintained in culture for an additional 14 days. In donor #1 MDMs, a virus rebound followed drug removal in the cultures that had been exposed to ddI alone.

Oc1ccc(/C=C/c2cc(O)cc(O)c2)cc1 [RV, trans-3, 4′, 5-trihydroxystilbene]
inhibition at 10 µM (HTLV-IIIB; 168 h, 10 μM RV combined with 0.5 μM ddI, day 7, read-out: inhibition of virus replication): > 99% | inhibition at 10 µM (HTLV-IIIB; 168 h, 10 μM RV in combination with 0.25 μM ddI, day 7, read-out: inhibition of HIV-1 replication): 94% | inhibition at 10 µM (HTLV-IIIB; RV 10 μM alone, read-out: inhibition of viral replication): ~30% | reduction of virus production (HTLV-IIIB; RV 5 μM alone): approximately 10% | anti-HIV effect (HIV-1SF162; RV 10 μM in the absence of ddI, 2 donors): only a modest anti-HIV effect

OC[C@@H]1CC[C@H](n2cnc3c(O)ncnc32)O1 [ddI, 2′,3′-dideoxyinosine]
IC90 (HTLV-IIIB; 168 h, in combination with 5 μM RV, day 7): 1.3 µM | IC90 (HTLV-IIIB; 168 h, nucleoside analog alone, day 7): 7.5 µM | increase in antiviral activity (HTLV-IIIB; addition of 10 μM RV to 2 μM ddI): 200 fold | reduction of IC90 value (HTLV-IIIB; in combination with 5 μM RV): 5.7 fold | reduction of IC90 value (HTLV-IIIB; in the presence of 10 μM RV): 17.8 fold | inhibition at 10 µM (HIV-1SF162; Human immunodeficiency virus 1, Macrophage, 168 h, ddI alone 10 μM, both donors, day 7, read-out: inhibition of viral replication): > 90% | virus production after drug removal on day 20 (HIV-1SF162; donor #1 MDMs): virus rebound | virus production after drug removal on day 20 (HIV-1SF162; donor #2 MDMs): continued releasing virus
